This passage reports IC50 results from patent publication US20240059691A1 (KALVISTA PHARMACEUTICALS LIMITED, priority 2020, published 2024).

The assay addresses Human Factor XIIa (Homo sapiens (Human), UniProt P00748). The assay is described as follows: Determination of FXIIa inhibition (fluorogenic substrate H-DPro-Phe-Arg-AFC, IC50 assay). The conditions noted are these: substrate H-DPro-Phe-Arg-AFC at Km, 25° C.; class scale A-G. Format: biochemical. The method, then:
Determination of FXIIa Inhibition
In vitro inhibition of Factor XIIa was determined using an IC50 assay based on standard literature methods (see e.g Baeriswyl et al., ACS Chem. Biol., 2015, 10 (8) 1861; Bouckaert et al., European Journal of Medicinal Chemistry 110 (2016) 181). Human Factor XIIa (Enzyme Research Laboratories) was incubated at 25° C. with the fluorogenic substrate H-DPro-Phe-Arg-AFC (Peptide Protein Science) and various concentrations of the test compound. Protease activity was measured by monitoring the accumulation of liberated fluorescence from the substrate over 5 min at 25° C. The linear rate of fluorescence increase per minute was expressed as percentage (%) activity. The Km for the cleavage of the substrate by FXIIa was determined by standard transformation of the Michaelis-Menten equation. The compound inhibitor assays were performed at substrate Km concentration. IC50 values were calculated as the concentration of inhibitor giving 50% inhibition (IC50) of the uninhibited enzyme activity (100%).

pIC50: −log10 of the molar value.

Chain of Human Factor XIIa (P00748 373-615): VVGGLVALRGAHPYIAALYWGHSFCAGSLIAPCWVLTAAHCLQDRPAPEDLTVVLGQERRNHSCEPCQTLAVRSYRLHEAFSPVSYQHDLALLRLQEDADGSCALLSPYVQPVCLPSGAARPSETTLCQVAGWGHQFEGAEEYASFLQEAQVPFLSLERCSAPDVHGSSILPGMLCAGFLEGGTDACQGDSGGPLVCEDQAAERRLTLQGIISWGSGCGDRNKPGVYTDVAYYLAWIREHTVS

Turning to `Nc1nccc2c(NCc3ccnc(N4CCn5c(nnc5C(F)(F)F)C4)c3)cccc12` [Example 4472, N5-((2-(3-(trifluoromethyl)-5,6-dihydro-[1,2,4]triazolo[4,3-a]pyrazin-7(8H)-yl)pyridin-4-yl)methyl)isoquinoline-1,5-diamine], the pIC50 is 5.52 to 6.00. In the case of `CN1CCC(COc2cc(CNc3ccc4c(N)nccc4c3)ccn2)CC1=O` (stereo not shown) [Example 4416, 4-{[(4-{[(1-aminoisoquinolin-6-yl)amino]methyl}pyridin-2-yl)oxy]methyl}-1-methylpiperidin-2-one], the pIC50 was 6.00 to 6.52. `Cc1cc(N2CCn3c(nnc3C(F)(F)F)C2C)cnc1CNc1cccc2c(N)nccc12` (stereo not shown) [Example 9007, N5-((3-methyl-5-(8-methyl-3-(trifluoromethyl)-5,6-dihydro-[1,2,4]triazolo[4,3-a]pyrazin-7(8H)-yl)pyridin-2-yl)methyl)isoquinoline-1,5-diamine] showed a pIC50 of 7.00 to 8.00. For `CN1CCC(COc2ccc(CCc3cccc4c(N)nccc34)cn2)CC1` [Example 1019, 5-(2-{6-[(1-methylpiperidin-4-yl)methoxy]pyridin-3-yl}ethyl)isoquinolin-1-amine], the pIC50 is 5.00 to 5.52. Molecule `CN1CCC(COc2cc(CNc3ccc4c(N)ncnc4c3)ccn2)CC1` [Example 4263, 7-N-({2-[(1-methylpiperidin-4-yl)methoxy]pyridin-4-yl}methyl)quinazoline-4,7-diamine] had a pIC50 of 4.40 to 5.00. For `CC(=O)N1CCC(OCc2ccc(CNc3ccc4c(N)nccc4c3)c(F)c2)CC1` [Example 2200, 1-(4-((4-(((1-aminoisoquinolin-6-yl)amino)methyl)-3-fluorobenzyl)oxy)piperidin-1-yl)ethan-1-one], the pIC50 is 6.00 to 6.52. To `CN1CCC(CNc2ccc(CNc3cc(Cl)cc4[nH]ccc34)cn2)CC1` [Example 1241, 6-chloro-N-((6-(((1-methylpiperidin-4-yl)methyl)amino)pyridin-3-yl)methyl)-1H-indol-4-amine] belongs 4.40 to 5.00; to `CN1CCC(COc2cc(CNc3cccc4c(N)nccc34)ccn2)CC1=O` (stereo not shown) [Example 4417, 4-{[(4-{[(1-aminoisoquinolin-5-yl)amino]methyl}pyridin-2-yl)oxy]methyl}-1-methylpiperidin-2-one], 6.00 to 6.52. In the case of `Nc1nccc2cc(NCc3ccnc(OCC4CCn5cnnc5C4)c3)ccc12` (stereo not shown) [Example 4411, 6-N-[(2-{5H,6H,7H,8H-[1,2,4]triazolo[4,3-a]pyridin-7-ylmethoxy}pyridin-4-yl)methyl]isoquinoline-1,6-diamine], the pIC50 was 6.00 to 6.52. `CCC1c2nnc(C(F)(F)F)n2CCN1c1cc(C)c(CNc2cccc3c(N)nccc23)cn1` (single isomer, unassigned) [Example 1321, (S*)-N5-((6-(8-ethyl-3-(trifluoromethyl)-5,6-dihydro-[1,2,4]triazolo[4,3-a]pyrazin-7(8H)-yl)-4-methylpyridin-3-yl)methyl)isoquinoline-1,5-diamine]: the pIC50 is 6.52 to 7.00. To `Cn1ccnc1CCCOc1cc(CNc2ccc3c(N)nccc3c2)ccn1` [Example 4420, 6-N-({2-[3-(1-methylimidazol-2-yl)propoxy]pyridin-4-yl}methyl)isoquinoline-1,6-diamine] belongs 5.52 to 6.00. The molecule `CN1CCC(CNc2ccc(CNc3cc(C(F)(F)F)cc4[nH]ccc34)cn2)CC1` [Example 1237, N-((6-(((1-methylpiperidin-4-yl)methyl)amino)pyridin-3-yl)methyl)-6-(trifluoromethyl)-1H-indol-4-amine] showed a pIC50 of 4.40 to 5.00. The molecule `Nc1nccc2cc(NCc3ccc(OCC4CCn5ccnc5C4)nc3)ccc12` (single isomer, unassigned) [Example 1023, 6-N-({6-[(7R*)-5H,6H,7H,8H-imidazo[1,2-a]pyridin-7-ylmethoxy]pyridin-3-yl}methyl)isoquinoline-1,6-diamine] had a pIC50 of 6.52 to 7.00. The molecule `Nc1nccc2cc(NCc3ccc(OC[C@H]4CCn5ccnc5C4)nc3)ccc12` (single isomer, unassigned) [Example 1024, 6-N-({6-[(7S*)-5H,6H,7H,8H-imidazo[1,2-a]pyridin-4-yl}-ylmethyl)isoquinoline-1,6-diamine] had a pIC50 of 6.52 to 7.00. As to `CN1CCC(C)(COc2cc(CNc3ccc4c(N)nccc4c3)ccn2)CC1` [Example 4425, 6-N-({2-[(1,4-dimethylpiperidin-4-yl)methoxy]pyridin-4-yl}methyl)isoquinoline-1,6-diamine], the pIC50 was 6.00 to 6.52. On to `Cc1cc(N2Cc3nnc(C(F)(F)F)n3C[C@H]2C)ncc1CNc1cccc2c(N)nccc12` [Example 1342, (R)-N5-((4-methyl-6-(6-methyl-3-(trifluoromethyl)-5,6-dihydro-[1,2,4]triazolo[4,3-a]pyrazin-7(8H)-yl)pyridin-3-yl)methyl)isoquinoline-1,5-diamine], for which the negative logarithm of the IC50 (pIC50) is 7.00 to 8.00. In turn, `CC(C)(O)CN1CCC(COc2ccc(CNc3ccc4c(N)nccc4c3)cn2)CC1` [Example 1017, 1-(4-(((5-(((1-aminoisoquinolin-6-yl)amino)methyl)pyridin-2-yl)oxy)methyl)piperidin-1-yl)-2-methylpropan-2-ol] had a negative logarithm of the IC50 (pIC50) of 6.00 to 6.52. To `CN(Cc1ccc(N2CCn3c(nnc3C(F)(F)F)C2)nc1)c1cccc2c(N)nccc12` [Example 1332, N5-methyl-N5-((6-(3-(trifluoromethyl)-5,6-dihydro-[1,2,4]triazolo[4,3-a]pyrazin-7(8H)-yl)pyridin-3-yl)methyl)isoquinoline-1,5-diamine] belongs 5.00 to 5.52; to `Cc1cc(N2CCn3c(nnc3C(F)(F)F)C2C)cnc1CNc1cccc2c(N)nccc12` (single isomer, unassigned) [Example 1345, (R*)-N5-((3-methyl-5-(8-methyl-3-(trifluoromethyl)-5,6-dihydro-[1,2,4]triazolo[4,3-a]pyrazin-7(8H)-yl)pyridin-2-yl)methyl)isoquinoline-1,5-diamine], 7.00 to 8.00. In the case of `CCC1c2nnc(C(F)(F)F)n2CCN1c1cc(C)c(CNc2cccc3c(N)nccc23)cn1` (stereo not shown) [Example 1331, N5-((6-(8-ethyl-3-(trifluoromethyl)-5,6-dihydro-[1,2,4]triazolo[4,3-a]pyrazin-7(8H)-yl)-4-methylpyridin-3-yl)methyl)isoquinoline-1,5-diamine], the negative-log IC50 (pIC50) was 6.52 to 7.00. The molecule `CN1CCC(CCn2cc(CNc3cccc4c(N)nccc34)cn2)CC1` [Example 3255, N5-((1-(2-(1-methylpiperidin-4-yl)ethyl)-1H-pyrazol-4-yl)methyl)isoquinoline-1,5-diamine] had a pIC50 of 6.00 to 6.52. To `CN1CCC(COc2cc(CNc3cnc4[nH]cc(Cl)c4c3)ccn2)CC1` [Example 4264, 3-chloro-N-((2-((1-methylpiperidin-4-yl)methoxy)pyridin-4-yl)methyl)-1H-pyrrolo[2,3-b]pyridin-5-amine] belongs 4.40 to 5.00. Regarding `CN1CCC(OCc2ccc(CN(C)c3cccc4c(N)nccc34)c(Cl)c2)CC1` [Example 2203, 5-N-[(2-chloro-4-{[(1-methylpiperidin-4-yl)oxy]methyl}phenyl)methyl]-5-N-methylisoquinoline-1,5-diamine], the pIC50 was 5.52 to 6.00. To `CN1CC2(CC(OCc3ccc(CNc4ccc5c(N)nccc5c4)c(F)c3)CS2)C1` (stereo not shown) [Example 2252, 6-N-({2-fluoro-4-[({2-methyl-5-thia-2-azaspiro[3.4]octan-7-yl}oxy)methyl]phenyl}methyl)isoquinoline-1,6-diamine] belongs 6.00 to 6.52; to `Nc1nccc2c(NCc3ccc(N4CCn5c(nnc5C(F)(F)F)C4)cc3F)cccc12` [Example 2256, N5-(2-Fluoro-4-(3-(trifluoromethyl)-5,6-dihydro-[1,2,4]triazolo[4,3-a]pyrazin-7(8H)-yl)benzyl)isoquinoline-1,5-diamine], 7.00 to 8.00. Molecule `CN1C[C@@H]2C(COc3ccc(CNc4ccc5c(N)nccc5c4)cn3)[C@@H]2C1` (stereo partly drawn) [Example 1175, 6-N-[(6-{[(1R,5S,6S)-3-methyl-3-azabicyclo[3.1.0]hexan-6-yl]methoxy}pyridin-3-yl)methyl]isoquinoline-1,6-diamine] gave a negative logarithm of the IC50 (pIC50) of 6.00 to 6.52. The molecule `CN1CCC(COc2ccc(CNc3ccc4cncc(CO)c4c3)cn2)CC1` [Example 1026, (6-(((6-((1-Methylpiperidin-4-yl)methoxy)pyridin-3-yl)methyl)amino)isoquinolin-4-yl)methanol] showed a pIC50 of 4.40 to 5.00. In the case of `CN1CCN(CCc2ccc(CNc3ccc4c(N)nccc4c3)cc2)CC1` [Example 2180, 6-N-({4-[2-(4-methylpiperazin-1-yl)ethyl]phenyl}methyl)isoquinoline-1,6-diamine], the pIC50 is 6.00 to 6.52. As for `CN1CCC(COc2ccc(CCc3ccc4c(N)nccc4c3)cn2)CC1` [Example 1018, 6-(2-(6-((1-methylpiperidin-4-yl)methoxy)pyridin-3-yl)ethyl)isoquinolin-1-amine], the pIC50 is 6.00 to 6.52. Consider `Cc1cc(N2CCn3c(nnc3C(F)(F)F)C2)ccc1CNc1cccc2c(N)nccc12` [Example 2257, N5-(2-methyl-4-(3-(trifluoromethyl)-5,6-dihydro-[1,2,4]triazolo[4,3-a]pyrazin-7(8H)-yl)benzyl)isoquinoline-1,5-diamine], for which the pIC50 was 6.52 to 7.00.

Molecule `CN1CCC(COc2cc(CN(C)c3cccc4c(N)nccc34)ccn2)CC1` [Example 4419, N5-methyl-N5-((2-((1-methylpiperidin-4-yl)methoxy)pyridin-4-yl)methyl)isoquinoline-1,5-diamine] gave a pIC50 of 5.00 to 5.52.

For orientation: pIC50 means the negative decadic logarithm of the IC50, by convention in mol/L. Lower therefore signals a large IC50.
